11 molecules from patent US20250011368A1, “DLL3 TARGETING PEPTIDES AND CONSTRUCTS THEREOF” (MARIANA ONCOLOGY INC., priority 2023, published 2025) can be followed below.

Numbered stars: 1 amine (or outer) side, 2 acyl side, 3 side chain; on linkers, the order of the positions; unused ones are H or OH. Bridge positions count the residues as written; N and C are the ends. Square brackets hold non-standard residues; d marks the D form. Side chains are listed from the residue outwards. Peptide text beside a SMILES is read from it. * marks the point of attachment. ξ: configuration not given here. X9 = O=C(O)CN1CCN(CC(=O)O)CCN(CC(=O)NCCCOCCOCCOCCCN*)CCN(CC(=O)O)CC1; Ala(piperidin-4-yl) = O=C([C@H](CC1CCN([*:3])CC1)N[*:1])[*:2]; DOTA = O=C(O)CN1CCN(CC(=O)O)CCN(CC(=O)*)CCN(CC(=O)O)CC1; Trp(5-F) = N[C@@H](Cc1c[nH]c2ccc(F)cc12)C(=O)O; Phe(2-CF3) = N[C@@H](Cc1ccccc1C(F)(F)F)C(=O)O; Trp(7-aza) = N[C@@H](Cc1c[nH]c2ncccc12)C(=O)O; Pro(trans-4-F) = O=C(O)[C@@H]1C[C@@H](F)CN1; Phe(4-F) = N[C@@H](Cc1ccc(F)cc1)C(=O)O; γGlu = O=C(O)[C@H](CCC(=O)[*:2])N[*:1]; 2Nal = N[C@@H](Cc1ccc2ccccc2c1)C(=O)O; tBuAla = CC(C)(C)C[C@H](N)C(=O)O; Chg = N[C@H](C(=O)O)C1CCCCC1; Suc = O=C(CCC(=O)[*:2])[*:1]; Nle = CCCC[C@H](N)C(=O)O; Aze = O=C(O)[C@@H]1CCN1; ξK = NCCCCC(N)C(=O)O

This test addresses T1, human DLL3 (Homo sapiens, UniProt Q9NYJ7).
T1 sequence (Q9NYJ7 27-618): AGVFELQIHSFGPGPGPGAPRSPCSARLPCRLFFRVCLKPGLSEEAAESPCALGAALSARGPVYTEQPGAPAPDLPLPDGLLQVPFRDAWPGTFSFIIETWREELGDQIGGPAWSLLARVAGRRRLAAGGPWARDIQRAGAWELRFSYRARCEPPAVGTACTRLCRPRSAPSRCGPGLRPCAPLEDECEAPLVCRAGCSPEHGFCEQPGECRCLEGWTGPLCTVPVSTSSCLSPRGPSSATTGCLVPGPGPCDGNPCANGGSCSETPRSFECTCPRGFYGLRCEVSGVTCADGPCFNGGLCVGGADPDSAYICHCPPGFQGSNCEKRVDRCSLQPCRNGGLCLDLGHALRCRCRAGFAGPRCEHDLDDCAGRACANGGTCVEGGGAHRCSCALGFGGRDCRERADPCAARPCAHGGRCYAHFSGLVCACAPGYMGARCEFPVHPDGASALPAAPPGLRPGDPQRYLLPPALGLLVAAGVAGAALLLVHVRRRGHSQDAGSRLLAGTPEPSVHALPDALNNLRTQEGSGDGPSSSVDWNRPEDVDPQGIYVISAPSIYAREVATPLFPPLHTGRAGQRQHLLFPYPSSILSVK
Description: Affinity determination by Surface Plasmon Resonance (SPR). The class given is binding. Particulars: 25° C., biotinylated human DLL3 immobilized on streptavidin sensor chip, 1:1 binding model; read-out: SPR KD. The procedure: SPR studies were performed on the compounds disclosed herein using the following protocol.
Biotinylated target ligand human DLL3 was immobilized on a streptavidin sensor chip. A reference surface was set up for nonspecific binding and refractive index changes. For analysis of the kinetics of interactions, varying concentrations of samples were injected at a flow rate of 100 μL/minute using running buffer containing 20 mM phosphate buffer with 2.7 mM KCl, 137 mM NaCl, 0.05% Surfactant P20 and 2% DMSO. Sensorgram curves were fitted with 1:1 binding model, and affinity and kinetic parameters were obtained using Biacore Insight evaluation 4.0. software.
For the molecule `CCCC[C@H](NC(=O)[C@@H](NC(=O)[C@H](Cc1c[nH]c2ccc(F)cc12)NC(C)=O)[C@@H](C)O)C(=O)N[C@H]1CSSC[C@@H](C(=O)N[C@@H](Cc2c[nH]c3ncccc23)C(=O)N2C[C@H](F)C[C@H]2C(=O)N[C@H](CCCCNC(=O)CN2CCN(CC(=O)O)CCN(CC(=O)O)CCN(CC(=O)O)CC2)C(N)=O)NC(=O)[C@H](CC(=O)O)NC(=O)[C@H](Cc2c[nH]cn2)NC(=O)[C@H](Cc2ccc3ccccc3c2)NC(=O)[C@H](CC(N)=O)NC(=O)[C@H](CC(N)=O)NC1=O` [compound 244, Ac-(5Fluoro-W)-T-(Nle)-C(3)-N-N-(2Nal)-H-D-C(3)-(7Aza-W)-(trans4Fluoro-P)-[D-Lys(DOTA)]-NH2] (Ac-[Trp(5-F)]T[Nle]CNN[2Nal]HDC[Trp(7-aza)][Pro(trans-4-F)][dK](DOTA)-NH2; disulfide 4-10), the Kd was less than 1 nM.
On to `CC(=O)N[C@@H](Cc1c[nH]c2ccccc12)C(=O)N[C@H](C(=O)N[C@H](C(=O)N[C@H]1CSSC[C@@H](C(=O)N[C@@H](Cc2c[nH]c3ccccc23)C(=O)N2CCC[C@H]2C(=O)N[C@H](CCCCNC(=O)CN2CCN(CC(=O)O)CCN(CC(=O)O)CCN(CC(=O)O)CC2)C(N)=O)NC(=O)[C@H](CC(N)=O)NC(=O)[C@H](Cc2cnc[nH]2)NC(=O)[C@H](Cc2ccc3ccccc3c2)NC(=O)[C@H](CC(N)=O)NC(=O)[C@H](CC2CCNCC2)NC1=O)C1CCCCC1)[C@@H](C)O` [compound 283, Ac-W-T-(Chg)-C(3)-[3-(4-piperidinyl)-Ala]-N-(2Nal)-H-(Asn)-C(3)-W-P-[D-Lys(DOTA)]-NH2] (Ac-WT[Chg]C[Ala(piperidin-4-yl)]N[2Nal]HNCWP[dK](DOTA)-NH2; disulfide 4-10), for which the dissociation constant Kd is less than 1 nM.
As for `CC(=O)N[C@@H](Cc1c[nH]c2ccc(F)cc12)C(=O)N[C@H](C(=O)N[C@H](C(=O)N[C@H]1CSSC[C@@H](C(=O)N[C@@H](Cc2c[nH]c3ncccc23)C(=O)N2CC[C@H]2C(=O)N[C@H](CCCCNC(=O)CN2CCN(CC(=O)O)CCN(CC(=O)O)CCN(CC(=O)O)CC2)C(N)=O)NC(=O)[C@H](CC(=O)O)NC(=O)[C@H](Cc2cnc[nH]2)NC(=O)[C@H](Cc2ccc(F)cc2)NC(=O)[C@H](CC(N)=O)NC(=O)[C@H](CC(N)=O)NC1=O)C1CCCCC1)[C@@H](C)O` [compound 127, Ac-(5Fluoro-W)-T-(Chg)-C(3)-N-N-(4Fluoro-F)-H-D-C(3)-(7Aza-W)-(Aze)-[D-Lys(DOTA)]-NH2] (Ac-[Trp(5-F)]T[Chg]CNN[Phe(4-F)]HDC[Trp(7-aza)][Aze][dK](DOTA)-NH2; disulfide 4-10), the Kd is 10 to 100 nM.
The value for `CC(=O)N[C@@H](Cc1c[nH]c2ccccc12)C(=O)N[C@H](C(=O)N[C@@H](CC(C)(C)C)C(=O)N[C@H]1CSSC[C@@H](C(=O)N[C@@H](Cc2c[nH]c3ccccc23)C(=O)N2CCC[C@H]2C(=O)N[C@H](CCCCNC(=O)CN2CCN(CC(=O)O)CCN(CC(=O)O)CCN(CC(=O)O)CC2)C(N)=O)NC(=O)[C@H](CC(=O)O)NC(=O)[C@H](Cc2cnc[nH]2)NC(=O)[C@H](Cc2ccc3ccccc3c2)NC(=O)[C@H](CC(N)=O)NC(=O)[C@H](CC2CCNCC2)NC1=O)[C@@H](C)O` [compound 282, Ac-W-T-(t-Bu-Ala)-C(3)-[3-(4-piperidinyl)-Ala]-N-(2Nal)-H-D-C(3)-W-P-[D-Lys(DOTA)]-NH2] (Ac-WT[tBuAla]C[Ala(piperidin-4-yl)]N[2Nal]HDCWP[dK](DOTA)-NH2; disulfide 4-10) was less than 1 nM; that for `CC(=O)N[C@@H](Cc1c[nH]c2ccccc12)C(=O)N[C@H](C(=O)N[C@@H](Cc1ccccc1C(F)(F)F)C(=O)N[C@H]1CSSC[C@@H](C(=O)N[C@@H](Cc2c[nH]c3ccccc23)C(=O)N2CCC[C@H]2C(=O)N[C@H](CCCCNC(=O)CN2CCN(CC(=O)O)CCN(CC(=O)O)CCN(CC(=O)O)CC2)C(N)=O)NC(=O)[C@H](CC(=O)O)NC(=O)[C@H](Cc2c[nH]cn2)NC(=O)[C@H](Cc2c[nH]c3ccccc23)NC(=O)[C@H](CC(N)=O)NC(=O)[C@H](CC(N)=O)NC1=O)[C@@H](C)O` [compound 114, Ac-W-T-(2CF3-F)-C(3)-N-N-W-H-D-C(3)-W-P-[D-Lys(DOTA)]-NH2] (Ac-WT[Phe(2-CF3)]CNNWHDCWP[dK](DOTA)-NH2; disulfide 4-10) was less than 1 nM; that for `CC[C@H](C)[C@H](NC(=O)[C@@H](NC(=O)[C@H](Cc1c[nH]c2ccccc12)NC(C)=O)[C@@H](C)O)C(=O)N[C@H]1CSSC[C@@H](C(=O)N[C@@H](Cc2c[nH]c3ccccc23)C(=O)N2CCC[C@H]2C(=O)N[C@H](CCCCNC(=O)CNC(=O)CNC(=O)CCC(=O)NCCCOCCOCCOCCCNC(=O)CN2CCN(CC(=O)O)CCN(CC(=O)O)CCN(CC(=O)O)CC2)C(N)=O)NC(=O)[C@H](CC(=O)O)NC(=O)[C@H](Cc2cnc[nH]2)NC(=O)[C@H](Cc2ccc3ccccc3c2)NC(=O)[C@H](CC(N)=O)NC(=O)[C@H](CC(N)=O)NC1=O` [compound 230, Ac-W-T-I-C(3)-N-N-(2Nal)-H-D-C(3)-W-P-[D-Lys(G-G-TTDS-DOTA)]-NH2] (Ac-WTICNN[2Nal]HDCWP[dK]([Gly-Gly-Suc-X9])-NH2; disulfide 4-10) was less than 1 nM.
Consider `CC[C@H](C)[C@H](NC(=O)[C@@H](NC(=O)[C@H](Cc1c[nH]c2ccccc12)NC(C)=O)[C@@H](C)O)C(=O)N[C@H]1CSSC[C@@H](C(=O)N[C@@H](Cc2c[nH]c3ccccc23)C(=O)N2CCC[C@H]2C(=O)N[C@H](CCCCNC(=O)CN2CCN(CC(=O)O)CCN(CC(=O)O)CCN(CC(=O)O)CC2)C(N)=O)NC(=O)[C@H](CC(=O)O)NC(=O)[C@H](Cc2cnc[nH]2)NC(=O)[C@H](Cc2ccc3ccccc3c2)NC(=O)[C@H](CC(N)=O)NC(=O)[C@H](CO)NC1=O` [compound 208, Ac-W-T-I-C(3)-(Ser)-N-(2Nal)-H-D-C(3)-W-P-[D-Lys(DOTA)]-NH2] (Ac-WTICSN[2Nal]HDCWP[dK](DOTA)-NH2; disulfide 4-10), for which the Kd is less than 1 nM.
The value for `CC[C@H](C)[C@H](NC(=O)[C@@H](NC(=O)[C@H](Cc1c[nH]c2ccccc12)NC(C)=O)[C@@H](C)O)C(=O)N[C@H]1CSSC[C@@H](C(=O)N[C@@H](Cc2c[nH]c3ccccc23)C(=O)N2CCC[C@H]2C(=O)N[C@@H](CCC(=O)N[C@H](CCCCNC(=O)CN2CCN(CC(=O)O)CCN(CC(=O)O)CCN(CC(=O)O)CC2)C(N)=O)C(=O)O)NC(=O)[C@H](CC(=O)O)NC(=O)[C@H](Cc2cnc[nH]2)NC(=O)[C@H](Cc2ccc3ccccc3c2)NC(=O)[C@H](CC(N)=O)NC(=O)[C@H](CC(N)=O)NC1=O` [compound 233, Ac-W-T-I-C(3)-N-N-(2Nal)-H-D-C(3)-W-P-gE-[D-Lys(DOTA)]-NH2] (Ac-WTICNN[2Nal]HDCWP[γGlu][dK](DOTA)-NH2; disulfide 4-10) was less than 1 nM; that for `CC(=O)N[C@@H](Cc1c[nH]c2ccc(F)cc12)C(=O)N[C@H](C(=O)N[C@H](C(=O)N[C@H]1CSSC[C@@H](C(=O)N[C@@H](Cc2c[nH]c3ncccc23)C(=O)N2C[C@H](F)C[C@H]2C(=O)N[C@H](CCCCNC(=O)CN2CCN(CC(=O)O)CCN(CC(=O)O)CCN(CC(=O)O)CC2)C(N)=O)NC(=O)[C@H](CC(=O)O)NC(=O)[C@H](Cc2cnc[nH]2)NC(=O)[C@H](Cc2ccc(F)cc2)NC(=O)[C@H](CC(N)=O)NC(=O)[C@H](CC(N)=O)NC1=O)C1CCCCC1)[C@@H](C)O` [compound 135, Ac-(5Fluoro-W)-T-(Chg)-C(3)-N-N-(4Fluoro-F)-H-D-C(3)-(7Aza-W)-(trans4Fluoro-P)-[D-Lys(DOTA)]-NH2] (Ac-[Trp(5-F)]T[Chg]CNN[Phe(4-F)]HDC[Trp(7-aza)][Pro(trans-4-F)][dK](DOTA)-NH2; disulfide 4-10) was 1 to 10 nM.
The value for `CC[C@H](C)[C@H](NC(=O)[C@@H](NC(=O)[C@H](Cc1c[nH]c2ccccc12)NC(C)=O)[C@@H](C)O)C(=O)N[C@H]1CSSC[C@@H](C(=O)N[C@@H](Cc2c[nH]c3ccccc23)C(=O)N2CCC[C@H]2C(=O)N[C@H](CCCCNC(=O)CN2CCN(CC(=O)O)CCN(CC(=O)O)CCN(CC(=O)O)CC2)C(=O)O)NC(=O)[C@H](CC(=O)O)NC(=O)[C@H](Cc2cnc[nH]2)NC(=O)[C@H](Cc2ccc3ccccc3c2)NC(=O)[C@H](CC(N)=O)NC(=O)[C@H](CC(N)=O)NC1=O` [compound 262, Ac-W-T-I-C(3)-N-N-(2Nal)-H-D-C(3)-W-P-[D-Lys(DOTA)]-OH] (Ac-WTICNN[2Nal]HDCWP[dK](DOTA)-OH; disulfide 4-10) was less than 1 nM.
Regarding `CCCC[C@H](NC(=O)[C@@H](NC(=O)[C@H](Cc1c[nH]c2ccc(F)cc12)NC(C)=O)[C@@H](C)O)C(=O)N[C@H]1CSSC[C@@H](C(=O)N[C@@H](Cc2c[nH]c3ncccc23)C(=O)N2CC[C@H]2C(=O)NC(CCCCNC(=O)CN2CCN(CC(=O)O)CCN(CC(=O)O)CCN(CC(=O)O)CC2)C(N)=O)NC(=O)[C@H](CC(=O)O)NC(=O)[C@H](Cc2cnc[nH]2)NC(=O)[C@H](Cc2ccc(F)cc2)NC(=O)[C@H](CC(N)=O)NC(=O)[C@H](CC(N)=O)NC1=O` (stereo partly drawn) [compound 124, Ac-(5Fluoro-W)-T-(Nle)-C(3)-N-N-(4Fluoro-F)-H-D-C(3)-(7Aza-W)-(Aze)-[D-Lys(DOTA)]-NH2] (Ac-[Trp(5-F)]T[Nle]CNN[Phe(4-F)]HDC[Trp(7-aza)][Aze][ξK](DOTA)-NH2; disulfide 4-10), the Kd was in the range of 10 to 100 nM.

As a reminder, the Kd is the constant that tells how readily two partners part at equilibrium.
